Test results as given in patent publication US5892063A (Hauser, Inc., priority 1997, dated 1999).

Tests used:
[1] = system: cell line panel (leukemia, non-small-cell lung cancer, colon, CNS, melanoma, ovarian, renal, prostate and breast cancers); assay: SRB growth screen, whole cell line panel; format: cell-based
Protocol: The screening assay is performed on 96-well microtitre plates. […] Duplicate wells are prepared for all concentrations; "time-zero" and "nodrug" controls are also provided for each test. […] One hundred microliters of SRB solution (0.4% w/v in 1% acetic acid) is added to each microtitre well and incubated for 10 minutes at room temperature.
The response parameters GI50 and LC50 are interpolated values representing the concentrations at which the percentage growth (PG) is +50 and -50 respectively:
GI50 is the concentration for which the PG=+50.
TGI is the concentration for which PG=0.
LC50 is the concentration for which the PG=-50. […] This is interpreted as cytotoxicity.
The data represented in Table I is graphically represented in FIGS. 1a and 1b through FIGS. 9a and 9b. […] The following is an example of how the information in Table I and in the Figures is interpreted.

SNB-75 = assay: SRB growth screen, CNS cancer SNB-75; details: Homo sapiens, SNB-75, 48 h
HS 578T = assay: SRB growth screen, breast cancer HS 578T; details: Homo sapiens, 48 h
microtubule = details: cited from earlier work
[2] = read-out: Log10 GI50 (converted)
[3] = read-out: Log10 LC50 (converted)

Row | Structure (SMILES) | potency as compared to paclitaxel ([1]; on the whole, all cell lines) | Log10 TGI, Range ([1]; range over cell lines (log10 units)) | GI50 (SNB-75; [2]) [nM] | CC50 (SNB-75; [3]) [nM] | GI50 (HS 578T; [2]) [nM] | CC50 (HS 578T; [3]) [nM] | IC (TGI) (HS 578T; read-out: Log10 TGI) [nM] | effect on microtubules (microtubule)
1 | CC(=O)O[C@H]1C(=O)[C@@]2(C)[C@H]([C@H](OC(=O)c3ccccc3)[C@]3(O)C[C@H](OC(=O)[C@H](O)[C@@H](NC(=O)C4(C)OC4C)c4ccccc4)C(C)=C1C3(C)C)[C@]1(OC(C)=O)CO[C@@H]1C[C@@H]2O (some centres unmarked) [Ceph-epoxide, cephalomannine epoxide] | equivalent to and in many instances greater than that of paclitaxel's | 4.00 | < 10 | > 100000 | < 10 | > 100000 | 55 | –
2 | CC(=O)O[C@H]1C(=O)[C@@]2(C)[C@H]([C@H](OC(=O)c3ccccc3)[C@]3(O)C[C@H](OC(=O)[C@H](O)[C@@H](NC(=O)c4ccccc4)c4ccccc4)C(C)=C1C3(C)C)[C@]1(OC(C)=O)CO[C@@H]1C[C@@H]2O [Paclitaxel, paclitaxel, reference compound] | – | – | – | – | – | – | – | stabilizes microtubules and inhibits depolymerization back to tubulin
